Data reported in patent US5338736A, “Angiotensin II receptor blocking 2,3,6-substituted quinazolinones” (American Cyanamid Company, priority 1993, dated 1994).
Values joined by “and” are separate entries in the source; they are usually repeats but may differ in a detail not shown here. Equal entries are not always repeated. Values belong to the molecule of their own block, whether it stands above or below them.

Legend:
Angiotensin II Receptor = target: T1, Angiotensin II Receptor (Bos taurus, UniProt P25104); assay: Receptor Binding Assay: competition with [^125 I](Sar^1, Ile^8)AngII on adrenal cortex microsomal membranes; design: species or system beef; settings: for IC50: beef adrenal cortex membranes, [^125 I](Sar^1, Ile^8)AngII, 60 min, room temperature, pH 7.4
T1 construct: The brownish tissue forming the adrenal cortex is scraped off and finely minced with scissors before homogenization; tissue Maxwell-Cohen (local slaughter house); host or cells: beef adrenal cortex, microsomal membranes
T1 sequence (P25104 1-359): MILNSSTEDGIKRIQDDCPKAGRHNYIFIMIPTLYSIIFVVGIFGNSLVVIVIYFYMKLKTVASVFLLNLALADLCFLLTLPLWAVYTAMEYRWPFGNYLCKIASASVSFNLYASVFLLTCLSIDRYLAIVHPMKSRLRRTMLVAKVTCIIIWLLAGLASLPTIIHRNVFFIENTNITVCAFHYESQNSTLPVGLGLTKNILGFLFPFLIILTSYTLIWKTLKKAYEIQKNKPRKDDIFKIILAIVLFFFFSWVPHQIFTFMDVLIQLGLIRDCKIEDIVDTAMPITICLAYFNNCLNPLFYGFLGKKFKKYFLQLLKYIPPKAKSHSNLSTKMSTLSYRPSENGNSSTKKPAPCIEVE
Description: Beef adrenals are obtained from a local slaughter house (Maxwell-Cohen). […] All unlabeled AngII analogs, Dimethylsulfoxide (DMSO), nucleotides, bovine serum albumin (BSA) are purchased from Sigma Chemical Co., St. Louis, Mo. U.S.A.
Approximately sixteen (16) to twenty (20) beef adrenal glands are processed as follows: fresh adrenal glands received on crushed ice are cleaned of fatty tissues and the tough membranes encapsulating the glands are removed and discarded. The brownish tissue forming the adrenal cortex is scraped off and finely minced with scissors before homogenization. Care is taken to avoid contamination with medullary tissue during dissection. The scraped cortices are suspended in twenty volumes of an ice-cold buffer medium consisting of 10 mM Tris.HCl (pH 7.4 at 22° C.) and containing 1.0 mM EDTA and 0.2M sucrose. Unless otherwise indicated, all subsequent operations are done at 4° C. […] The homogenate is centrifuged first at low speed (3,000× g) for 10 min. The resulting pellet is discarded and the supernatant fluid recentrifuged at 10,000× g for 15 minutes to give a P2 pellet. […] The translucent final pellet is harvested and combined in a small volume (20-50.0 ml) of 50.0 mM Tris.HCl buffer, pH 7.2. […] The pelleted membrane is reconstituted in 50.0 mM Tris.HCl buffer containing 0.1 mM of phenylmethylsulfonyl fluoride (PMSF) to give approximately a protein concentration of 2.5 mg per ml of tissue suspension. The membrane preparation is finally aliquoted in 1.0 ml volumes and stored at -70° C. until use in the binding assays.
Assays are performed in triplicate. The wells are left undisturbed for 60 min. at room temperature. […] The filter discs are washed with 10×1.0 ml of cold 0.9% NaCl to remove unbound ligand. […] This method is routinely used. The filters are removed from the filter grid and counted in a Parkard® Cobra Gamma Counter for 1 min. (Packard Instrument Co., Downers Grove, Ill., U.S.A.).

[1] = system: angiotensin II vasopressor response; assay: AII challenge: inhibition of angiotensin II vasopressor response in conscious SHR; format: in vivo, rat (Male Okamoto-Aoki SHR); settings: 3 mg/kg iv; for % Inhibition / Average Change: n = 2
Description: By administering a compound of this invention to a rat, and then challenging with angiotensin II, a blockage of the vasopressor response is realized.
Conscious Male Okamoto-Aoki SHR, 16-20 weeks old, weighing approximately 330 g are purchased from Charles River Labs (Wilmington, Mass.). Conscious rats are restrained in a supine position with elastic tape. The area at the base of the tail is locally anesthetized by subcutaneous infiltration with 2% procaine. The ventral caudal artery and vein are isolated, and a cannula made of polyethylene (PE) 10-20 tubing (fused together by heat) is passed into the lower abdominal aorta and vena cava, respectively. The cannula is secured, heparinized (1,000 I.U./ml), sealed and the wound is closed. The animals are placed in plastic restraining cages in an upright position. The cannula is attached to a Statham P23Db pressure transducer, and pulsatile blood pressure is recorded to 10-15 minutes with a Gould Brush recorder. (Chan et al., (Drug Development Res., 18:75-94, 1989).
Angiotensin II (human sequence, Sigma Chem. Co., St. Louis, Mo.) of 0.05 and 0.1 μg/kg i.v. is injected into all rats (predosing response). Then a test compound, vehicle or a known angiotensin II antagonist is administered i.v., i.p. or orally to each set of rats. The two doses of angiotensin II are given to each rat again at 30. 60. 90. 120. 180. 240 and 300 minutes post dosing the compound or vehicle. The vasopressor response of angiotensin II is measured for the increase in systolic blood pressure in mmHg. The percentage of antagonism or blockade of the vasopressor response of angiotensin II by a compound is calculated using the vasopressor response (increase in systolic blood pressure) of angiotensin II of each rat predosing the compound as 100%. A compound is considered active if at 30 mg/kg i.v. it antagonized at least 50% of the response.

[2] = AII 0.05 mcg/kg, 30 min post dose
[3] = AII 0.05 mcg/kg, 60 min post dose
[4] = AII 0.05 mcg/kg, 90 min post dose
[5] = AII 0.05 mcg/kg, 120 min post dose
[6] = AII 0.05 mcg/kg, 180 min post dose
[7] = AII 0.05 mcg/kg, 240 min post dose
[8] = AII 0.05 mcg/kg, 300 min post dose
[9] = AII 0.1 mcg/kg, 30 min post dose
[10] = AII 0.1 mcg/kg, 60 min post dose
[11] = AII 0.1 mcg/kg, 90 min post dose
[12] = AII 0.1 mcg/kg, 120 min post dose
[13] = AII 0.1 mcg/kg, 180 min post dose
[14] = AII 0.1 mcg/kg, 240 min post dose
[15] = AII 0.1 mcg/kg, 300 min post dose

Specific binding for [^125 I](Sar^1, Ile^8)AngII (Angiotensin II Receptor; non-specific binding with 1.0 μM unlabeled (Sar^1, Ile^8)AngII): greater than 90%
Molecule: [^125 I](Sar^1, Ile^8)AngII [reference compound]

IC50 (Angiotensin II Receptor): 105 nM
Molecule: CCCCc1nc2ccc(C3CCC4CCCC4O3)cc2c(=O)n1Cc1ccc(-c2ccccc2-c2nn[nH]n2)cc1 (stereo not shown) [Example 10]

IC50 (Angiotensin II Receptor): 132 nM
Molecule: CCCCc1nc2ccc(C3CCC4CCCCC4O3)cc2c(=O)n1Cc1ccc(-c2ccccc2-c2nn[nH]n2)cc1 (stereo not shown) [Example 11]
Change (response to AII, individual rat) [1, 2]: 15 mmHg and 20 mmHg
% Inhibition [1, 2]: 59%
Average Change [1, 2]: 17.5 mmHg
Change (response to AII, individual rat) [1, 3]: 30 mmHg and 15 mmHg
% Inhibition [1, 3]: 47%
Average Change [1, 3]: 22.5 mmHg
Change (response to AII, individual rat) [1, 4]: 30 mmHg and 10 mmHg
% Inhibition [1, 4]: 53%
Average Change [1, 4]: 20 mmHg
Change (response to AII, individual rat) [1, 5]: 10 mmHg
% Inhibition [1, 5]: 76%
Average Change [1, 5]: 10 mmHg
Change (response to AII, individual rat) [1, 6]: 30 mmHg and 35 mmHg
% Inhibition [1, 6]: 24%
Average Change [1, 6]: 32.5 mmHg
Change (response to AII, individual rat) [1, 7]: 20 mmHg and 7 mmHg
% Inhibition [1, 7]: 68%
Average Change [1, 7]: 13.5 mmHg
Change (response to AII, individual rat) [1, 8]: 30 mmHg and 15 mmHg
% Inhibition [1, 8]: 47%
Average Change [1, 8]: 22.5 mmHg
Change (response to AII, individual rat) [1, 9]: 10 mmHg and 30 mmHg
% Inhibition [1, 9]: 65%
Average Change [1, 9]: 20 mmHg
Change (response to AII, individual rat) [1, 10]: 20 mmHg and 10 mmHg
% Inhibition [1, 10]: 74%
Average Change [1, 10]: 15 mmHg
Change (response to AII, individual rat) [1, 11]: 30 mmHg and 25 mmHg
% Inhibition [1, 11]: 52%
Average Change [1, 11]: 27.5 mmHg
Change (response to AII, individual rat) [1, 12]: 15 mmHg and 25 mmHg
% Inhibition [1, 12]: 65%
Average Change [1, 12]: 20 mmHg
Change (response to AII, individual rat) [1, 13]: 35 mmHg and 20 mmHg
% Inhibition [1, 13]: 52%
Average Change [1, 13]: 27.5 mmHg
Change (response to AII, individual rat) [1, 14]: 35 mmHg and 30 mmHg
% Inhibition [1, 14]: 43%
Average Change [1, 14]: 32.5 mmHg
Change (response to AII, individual rat) [1, 15]: 35 mmHg and 30 mmHg
% Inhibition [1, 15]: 43%
Average Change [1, 15]: 32.5 mmHg
Response After AII (individual rat) ([1]; after AII 0.05 mcg/kg, 30 min post dose): 260 mmHg and 265 mmHg
Response After AII (individual rat) ([1]; after AII 0.05 mcg/kg, 60 min post dose): 260 mmHg and 255 mmHg
Response After AII (individual rat) ([1]; after AII 0.05 mcg/kg, 90 min post dose): 265 mmHg and 245 mmHg
Response After AII (individual rat) ([1]; after AII 0.05 mcg/kg, 120 min post dose): 255 mmHg and 240 mmHg
Response After AII (individual rat) ([1]; after AII 0.05 mcg/kg, 180 min post dose): 265 mmHg and 260 mmHg
Response After AII (individual rat) ([1]; after AII 0.05 mcg/kg, 240 min post dose): 250 mmHg and 240 mmHg
Response After AII (individual rat) ([1]; after AII 0.05 mcg/kg, 300 min post dose): 275 mmHg and 255 mmHg
Response After AII (individual rat) ([1]; after AII 0.1 mcg/kg, 30 min post dose): 260 mmHg and 280 mmHg
Response After AII (individual rat) ([1]; after AII 0.1 mcg/kg, 60 min post dose): 260 mmHg and 255 mmHg
Response After AII (individual rat) ([1]; after AII 0.1 mcg/kg, 90 min post dose): 285 mmHg and 260 mmHg
Response After AII (individual rat) ([1]; after AII 0.1 mcg/kg, 120 min post dose): 255 mmHg and 250 mmHg
Response After AII (individual rat) ([1]; after AII 0.1 mcg/kg, 180 min post dose): 270 mmHg and 255 mmHg
Response After AII (individual rat) ([1]; after AII 0.1 mcg/kg, 240 min post dose): 285 mmHg and 255 mmHg
Response After AII (individual rat) ([1]; after AII 0.1 mcg/kg, 300 min post dose): 275 mmHg
Control Before AII (individual rat) ([1]; before AII 0.05 mcg/kg, 30 min post dose): 245 mmHg
Control Before AII (individual rat) ([1]; before AII 0.05 mcg/kg, 60 min post dose): 230 mmHg and 240 mmHg
Control Before AII (individual rat) ([1]; before AII 0.05 mcg/kg, 90 min post dose): 235 mmHg
Control Before AII (individual rat) ([1]; before AII 0.05 mcg/kg, 120 min post dose): 245 mmHg and 230 mmHg
Control Before AII (individual rat) ([1]; before AII 0.05 mcg/kg, 180 min post dose): 235 mmHg and 225 mmHg
Control Before AII (individual rat) ([1]; before AII 0.05 mcg/kg, 240 min post dose): 230 mmHg and 233 mmHg
Control Before AII (individual rat) ([1]; before AII 0.05 mcg/kg, 300 min post dose): 245 mmHg and 240 mmHg
Control Before AII (individual rat) ([1]; before AII 0.1 mcg/kg, 30 min post dose): 250 mmHg
Control Before AII (individual rat) ([1]; before AII 0.1 mcg/kg, 60 min post dose): 240 mmHg and 245 mmHg
Control Before AII (individual rat) ([1]; before AII 0.1 mcg/kg, 90 min post dose): 255 mmHg and 235 mmHg
Control Before AII (individual rat) ([1]; before AII 0.1 mcg/kg, 120 min post dose): 240 mmHg and 225 mmHg
Control Before AII (individual rat) ([1]; before AII 0.1 mcg/kg, 180 min post dose): 235 mmHg
Control Before AII (individual rat) ([1]; before AII 0.1 mcg/kg, 240 min post dose): 250 mmHg and 225 mmHg
Control Before AII (individual rat) ([1]; before AII 0.1 mcg/kg, 300 min post dose): 240 mmHg and 245 mmHg
